This is an account of results in ChEMBL document CHEMBL1201862, “PubChem BioAssay data set” (2004).

Active and inactive are the calls of the source. Bounds are passed on as bounds.

Assay [1] concerns the target T1, Intestinal-type alkaline phosphatase (Homo sapiens, UniProt P09923). The assay can be described thus: Dose Response confirmation of uHTS hits from a small molecule inhibitors of human intestinal alkaline phosphatase via a luminescent assay. [Related pubchem assays (depositor defined):AID2544, AID2574]. The assay is classed as functional.
The target of assay [2] is T1, Intestinal-type alkaline phosphatase. The assay can be described thus: human intestinal alkaline phosphatase activators, dose response, biochemical, luminescence, uHTS hits (AID 463120). Format: functional.
In the next assay the target is Troponin, cardiac muscle (Homo sapiens, UniProt P19429+P45379+P63316). The assay can be described thus: Fluorescence-based biochemical high throughput dose response assay for activators of the calcium sensitivity of cardiac Regulated Thin Filaments (RTF). [Related pubchem assays (depositor defined):AID493008, AID493018, AID504382, AID504383]. Format: protein-complex assay.

Assay [3] addresses Disintegrin and metalloproteinase domain-containing protein 17 (Homo sapiens, UniProt P78536). The assay can be described thus: exosite inhibitors of ADAM17, dose response, biochemical (AID 743260).
A short description of assay [4]: ADAM10 protease inhibitors, dose response, selectivity assay for ADAM17 exosite inhibitor project, biochemical, FRET peptide substrate, recombinant human ADAM10 (AID 743259).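 Note: ADAM10 enzyme cleaving a FRET peptide substrate.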
In a further assay the target is Ion channel NompC (Danio rerio, UniProt Q7T1G6). The experiment in a line: Dose response cell-based high-throughput screening assay for agonists of the transient receptor potential channel N1 (TRPN1). [Related pubchem assays (depositor defined):AID1424, AID1448]. The assay is classed as functional.
Sequence of Ion channel NompC (Q7T1G6 whole entry): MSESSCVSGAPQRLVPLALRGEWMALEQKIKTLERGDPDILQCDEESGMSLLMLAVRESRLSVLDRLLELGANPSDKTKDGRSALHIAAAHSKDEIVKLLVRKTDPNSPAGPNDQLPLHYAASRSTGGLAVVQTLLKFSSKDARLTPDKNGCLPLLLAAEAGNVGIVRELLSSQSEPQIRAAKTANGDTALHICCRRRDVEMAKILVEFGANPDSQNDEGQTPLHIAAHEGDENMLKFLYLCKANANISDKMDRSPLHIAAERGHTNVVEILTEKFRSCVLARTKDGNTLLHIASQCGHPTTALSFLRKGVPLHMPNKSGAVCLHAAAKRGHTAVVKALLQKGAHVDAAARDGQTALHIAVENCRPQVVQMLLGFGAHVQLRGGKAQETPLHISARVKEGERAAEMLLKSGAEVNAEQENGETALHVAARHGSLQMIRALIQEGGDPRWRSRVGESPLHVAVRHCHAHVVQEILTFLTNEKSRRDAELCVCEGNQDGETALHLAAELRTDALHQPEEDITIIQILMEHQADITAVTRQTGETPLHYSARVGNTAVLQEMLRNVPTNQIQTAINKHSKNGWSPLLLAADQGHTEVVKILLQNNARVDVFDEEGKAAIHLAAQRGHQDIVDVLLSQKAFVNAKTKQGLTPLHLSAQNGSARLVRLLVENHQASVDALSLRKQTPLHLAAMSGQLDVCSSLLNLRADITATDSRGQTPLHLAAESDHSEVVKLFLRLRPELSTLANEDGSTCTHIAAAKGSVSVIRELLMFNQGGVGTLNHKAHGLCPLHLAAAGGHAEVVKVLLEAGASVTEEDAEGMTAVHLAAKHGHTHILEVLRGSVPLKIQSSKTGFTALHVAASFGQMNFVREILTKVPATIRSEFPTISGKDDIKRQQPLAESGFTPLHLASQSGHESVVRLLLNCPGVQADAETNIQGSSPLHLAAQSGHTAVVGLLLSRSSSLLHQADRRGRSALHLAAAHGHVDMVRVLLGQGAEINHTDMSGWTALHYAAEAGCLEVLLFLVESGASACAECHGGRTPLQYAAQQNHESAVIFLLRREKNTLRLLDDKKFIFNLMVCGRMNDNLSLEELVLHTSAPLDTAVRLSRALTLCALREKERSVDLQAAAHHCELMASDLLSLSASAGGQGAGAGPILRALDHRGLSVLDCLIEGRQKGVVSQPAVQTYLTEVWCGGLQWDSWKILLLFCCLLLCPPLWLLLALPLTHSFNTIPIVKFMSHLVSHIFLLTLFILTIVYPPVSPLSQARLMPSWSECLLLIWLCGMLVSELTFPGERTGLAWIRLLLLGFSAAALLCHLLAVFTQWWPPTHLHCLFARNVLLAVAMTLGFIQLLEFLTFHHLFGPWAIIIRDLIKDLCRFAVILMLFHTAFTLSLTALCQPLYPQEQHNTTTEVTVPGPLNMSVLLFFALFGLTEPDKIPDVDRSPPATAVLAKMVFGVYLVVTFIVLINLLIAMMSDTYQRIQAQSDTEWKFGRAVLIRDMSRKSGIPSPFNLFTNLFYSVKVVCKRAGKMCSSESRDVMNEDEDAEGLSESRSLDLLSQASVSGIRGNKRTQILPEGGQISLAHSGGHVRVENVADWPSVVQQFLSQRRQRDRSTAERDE
The next assay has as its target T2, Mucolipin-3 (Homo sapiens, UniProt Q8TDD5).
T2 sequence (Q8TDD5 whole entry): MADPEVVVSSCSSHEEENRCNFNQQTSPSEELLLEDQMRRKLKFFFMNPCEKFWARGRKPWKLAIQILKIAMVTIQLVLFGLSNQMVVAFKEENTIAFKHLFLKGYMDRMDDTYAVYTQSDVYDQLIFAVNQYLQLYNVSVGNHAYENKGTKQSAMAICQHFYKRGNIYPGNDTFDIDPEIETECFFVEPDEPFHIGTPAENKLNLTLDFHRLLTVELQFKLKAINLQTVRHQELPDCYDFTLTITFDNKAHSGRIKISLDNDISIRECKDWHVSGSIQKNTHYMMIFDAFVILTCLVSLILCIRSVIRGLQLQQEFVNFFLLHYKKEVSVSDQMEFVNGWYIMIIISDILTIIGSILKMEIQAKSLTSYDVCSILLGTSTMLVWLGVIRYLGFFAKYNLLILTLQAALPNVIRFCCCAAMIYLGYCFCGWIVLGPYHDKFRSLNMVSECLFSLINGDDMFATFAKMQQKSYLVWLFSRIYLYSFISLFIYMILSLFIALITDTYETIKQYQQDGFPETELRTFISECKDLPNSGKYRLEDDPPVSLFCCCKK
The experiment in a line: Fluorescence counterscreen assay for […] agonists: dose response cell-based high-throughput screening assay to identify agonists of the transient receptor potential channel ML3 (TRPML3). [Related pubchem assays: 1424, 1448 ]. Format: functional.

Assay [5] relates to Streptococcus sp. 'group A'. The experiment in a line: growth inhibition of control SK(-) GAS strain, dose response, counter-screen for streptokinase expression inhibitor project, luminescence, kanamycin, BacTiterGlo, confirmation (AID 1900). Format: functional, organism-based. Background: Counterscreens check selectivity or assay interference.
Another assay relates to Streptococcus. The assay can be described thus: Group A Streptococcus viability loss, dose response, counter-screen for streptokinase expression inhibitor project, luminescence, BacTiterGlo (AID 1915).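 Note: potency for reduction of bacterial viability or growth.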 The assay is classed as functional, organism-based.
A further assay has as its target Prothrombin (Bos taurus, UniProt P00735). The assay can be described thus: thrombin inhibition, dose response, biochemical, fluorescence polarization, uHTS hits (AID 602369). Format: functional. Background: Polarisation of emitted light reports the rotation of a fluorescent probe.
Assay [6] addresses T1, Intestinal-type alkaline phosphatase. The assay can be described thus: activation of human intestinal alkaline phosphatase – biochemical, dose response (AID 488873). Format: functional.
The target of assay [7] is 1-phosphatidylinositol 4,5-bisphosphate phosphodiesterase gamma-1 (Homo sapiens, UniProt P19174). The assay can be described thus: Counterscreen for inhibitors of phospholipase C isozymes (PLC-B3): Fluorescence-based biochemical high throughput dose response assay to identify inhibitors of phospholipase C isozymes (PLC-gamma1).
The target in another assay is T3, Cysteine protease ATG4B (Homo sapiens, UniProt Q9Y4P1).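 Note: Fluorescence-based dose-response confirmation assay measuring inhibition of ATG4B activity.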
T3 sequence (Q9Y4P1 whole entry): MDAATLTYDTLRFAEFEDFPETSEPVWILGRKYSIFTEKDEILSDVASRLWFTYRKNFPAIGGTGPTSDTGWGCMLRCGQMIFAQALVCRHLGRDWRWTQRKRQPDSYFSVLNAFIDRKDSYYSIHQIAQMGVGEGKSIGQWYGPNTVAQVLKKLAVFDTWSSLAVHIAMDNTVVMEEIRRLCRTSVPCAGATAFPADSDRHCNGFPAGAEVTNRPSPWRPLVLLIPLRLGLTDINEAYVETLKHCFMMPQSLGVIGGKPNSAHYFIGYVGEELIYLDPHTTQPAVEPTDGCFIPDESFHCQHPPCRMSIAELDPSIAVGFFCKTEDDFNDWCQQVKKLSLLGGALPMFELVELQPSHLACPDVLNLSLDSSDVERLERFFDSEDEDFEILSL
The assay is classed as functional.

The target of assay [8] is T4, Alkaline phosphatase, tissue-nonspecific isozyme (Homo sapiens, UniProt P05186).
T4 sequence (P05186 whole entry): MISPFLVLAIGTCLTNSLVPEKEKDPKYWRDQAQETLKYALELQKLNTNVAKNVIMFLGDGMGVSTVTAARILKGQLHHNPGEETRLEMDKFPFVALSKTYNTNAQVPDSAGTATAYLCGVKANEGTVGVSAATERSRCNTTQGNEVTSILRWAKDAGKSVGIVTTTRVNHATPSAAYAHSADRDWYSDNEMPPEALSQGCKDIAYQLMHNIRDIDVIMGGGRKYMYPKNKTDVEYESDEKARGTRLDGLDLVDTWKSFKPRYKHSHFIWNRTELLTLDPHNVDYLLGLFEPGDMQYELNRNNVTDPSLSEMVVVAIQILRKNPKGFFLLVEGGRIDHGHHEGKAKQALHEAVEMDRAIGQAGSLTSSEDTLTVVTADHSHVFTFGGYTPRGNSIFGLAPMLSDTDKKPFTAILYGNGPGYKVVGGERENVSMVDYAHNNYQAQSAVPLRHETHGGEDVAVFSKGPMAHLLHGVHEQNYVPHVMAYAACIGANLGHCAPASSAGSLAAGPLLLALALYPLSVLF
The experiment in a line: TNAP enzyme inhibition by screening hits, dose response, selectivity assay for mouse IAP inhibitor project, biochemical, human TNAP, uHTS hits (AID 488906). Format: functional.

Assay [9] concerns the target 26S proteasome non-ATPase regulatory subunit 14 (Homo sapiens, UniProt O00487). The assay can be described thus: inhibition of proteasome subunit RPN11 – biochemical, fluorescence polarization, uHTS hits, confirmation (AID 602368). Format: functional.
The next assay addresses Large T antigen (Simian virus 40, UniProt P03070). The assay is classed as functional, Betapolyomavirus macacae.
The target of assay [10] is 72 kDa type IV collagenase (Homo sapiens, UniProt P08253). The experiment in a line: Dose Response validation of uHTS RPN11 inhibitor hits using a MMP-2 Fluorescence assay. The assay is classed as functional.
The next assay concerns the target Phospholipase A2 (Homo sapiens, UniProt P04054). Format: functional.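 Note: confirmatory dose-response counterscreen on phospholipase A2, testing hits that came from an ultra-high-throughput screen for ATG4B inhibitors.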
Another assay has as its target T5, ORF 73 (Human herpesvirus 8, UniProt O40947).
T5 sequence (O40947 whole entry): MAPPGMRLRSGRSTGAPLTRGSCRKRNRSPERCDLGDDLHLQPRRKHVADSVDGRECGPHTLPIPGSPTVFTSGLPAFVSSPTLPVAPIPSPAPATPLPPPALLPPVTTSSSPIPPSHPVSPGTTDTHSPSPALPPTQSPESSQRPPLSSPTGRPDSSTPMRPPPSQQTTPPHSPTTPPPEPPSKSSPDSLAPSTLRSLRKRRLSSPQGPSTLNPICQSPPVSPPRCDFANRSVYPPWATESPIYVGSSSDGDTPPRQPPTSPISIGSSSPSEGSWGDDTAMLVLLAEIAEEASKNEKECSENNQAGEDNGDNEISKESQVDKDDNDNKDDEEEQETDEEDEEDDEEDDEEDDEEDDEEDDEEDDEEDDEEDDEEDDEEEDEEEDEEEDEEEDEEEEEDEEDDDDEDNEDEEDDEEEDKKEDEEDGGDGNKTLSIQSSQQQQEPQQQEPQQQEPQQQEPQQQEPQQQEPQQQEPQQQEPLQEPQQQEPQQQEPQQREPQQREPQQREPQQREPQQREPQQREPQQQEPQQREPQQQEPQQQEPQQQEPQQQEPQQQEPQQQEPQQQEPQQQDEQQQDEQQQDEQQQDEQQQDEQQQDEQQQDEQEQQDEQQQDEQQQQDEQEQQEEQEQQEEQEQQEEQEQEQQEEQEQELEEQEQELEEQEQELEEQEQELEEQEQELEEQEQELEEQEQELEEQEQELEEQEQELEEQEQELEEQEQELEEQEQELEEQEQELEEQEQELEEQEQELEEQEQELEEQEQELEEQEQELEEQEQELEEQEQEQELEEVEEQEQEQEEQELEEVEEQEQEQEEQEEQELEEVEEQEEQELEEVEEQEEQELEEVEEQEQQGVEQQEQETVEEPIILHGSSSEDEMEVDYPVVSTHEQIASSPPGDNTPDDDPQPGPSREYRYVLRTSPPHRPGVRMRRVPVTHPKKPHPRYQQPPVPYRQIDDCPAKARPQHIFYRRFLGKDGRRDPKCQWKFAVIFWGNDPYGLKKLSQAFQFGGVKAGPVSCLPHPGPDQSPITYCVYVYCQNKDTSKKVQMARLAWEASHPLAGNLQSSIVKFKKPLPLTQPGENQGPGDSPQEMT
The experiment in a line: inhibitors of C-LANA binding to LBS DNA, dose response, biochemical, fluorescence polarization, cherry-picked samples (AID 504725).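 Note: fluorescence polarization of a labeled DNA duplex reporting LANA DNA binding; potency is for inhibitors that block LANA binding to the DNA.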 Details: species or system Human gammaherpesvirus 8.

The target of assay [11] is T6, Intestinal-type alkaline phosphatase (Mus musculus, UniProt P24822). The assay can be described thus: PubChem AID 488785. The assay is classed as functional.
T6 sequence (P24822 whole entry): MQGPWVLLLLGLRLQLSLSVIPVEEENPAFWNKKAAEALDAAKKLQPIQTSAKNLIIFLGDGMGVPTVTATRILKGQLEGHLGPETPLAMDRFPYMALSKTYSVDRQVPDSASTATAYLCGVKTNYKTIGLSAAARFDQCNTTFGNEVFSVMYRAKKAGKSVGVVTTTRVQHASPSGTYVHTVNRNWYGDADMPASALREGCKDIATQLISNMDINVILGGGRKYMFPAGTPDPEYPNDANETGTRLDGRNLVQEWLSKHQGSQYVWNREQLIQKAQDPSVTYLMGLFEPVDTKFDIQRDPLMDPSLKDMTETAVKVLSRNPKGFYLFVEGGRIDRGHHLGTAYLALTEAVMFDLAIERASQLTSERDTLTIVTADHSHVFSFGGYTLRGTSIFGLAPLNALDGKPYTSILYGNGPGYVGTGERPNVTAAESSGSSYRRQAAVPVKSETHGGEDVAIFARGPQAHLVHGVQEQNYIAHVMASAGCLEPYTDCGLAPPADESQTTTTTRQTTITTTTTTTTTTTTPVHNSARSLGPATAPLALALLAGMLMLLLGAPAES
The target of assay [12] is 1-phosphatidylinositol 4,5-bisphosphate phosphodiesterase beta-3 (Homo sapiens, UniProt Q01970). The experiment in a line: Fluorescence-based biochemical high throughput dose response assay to identify inhibitors of phospholipase C isozymes (PLC-B3).
Assay [13] addresses Voltage-dependent T-type calcium channel subunit alpha-1H (Homo sapiens, UniProt O95180). The experiment in a line: Cav3.2 T-type channel inhibitors, synthesized analogs, SAR follow-up, cell-based, synthetic library set 2, HEK293 HH8, Fluo-4 (AID 493023). The assay is classed as functional.
For assay [14], the target named is T4, Alkaline phosphatase, tissue-nonspecific isozyme. The assay can be described thus: TNAP enzyme activators, dose response, selectivity assay for mouse IAP activator project, biochemical, TNAP isozyme, mouse IAP uHTS hits (AID 488880). The assay is classed as functional.
Assay [15] has as its target T6, Intestinal-type alkaline phosphatase. The assay can be described thus: mouse intestinal alkaline phosphatase activators, dose response, biochemical, luminescence, uHTS hits (AID 488783). The assay is classed as functional.

T1 sequence (P09923 whole entry): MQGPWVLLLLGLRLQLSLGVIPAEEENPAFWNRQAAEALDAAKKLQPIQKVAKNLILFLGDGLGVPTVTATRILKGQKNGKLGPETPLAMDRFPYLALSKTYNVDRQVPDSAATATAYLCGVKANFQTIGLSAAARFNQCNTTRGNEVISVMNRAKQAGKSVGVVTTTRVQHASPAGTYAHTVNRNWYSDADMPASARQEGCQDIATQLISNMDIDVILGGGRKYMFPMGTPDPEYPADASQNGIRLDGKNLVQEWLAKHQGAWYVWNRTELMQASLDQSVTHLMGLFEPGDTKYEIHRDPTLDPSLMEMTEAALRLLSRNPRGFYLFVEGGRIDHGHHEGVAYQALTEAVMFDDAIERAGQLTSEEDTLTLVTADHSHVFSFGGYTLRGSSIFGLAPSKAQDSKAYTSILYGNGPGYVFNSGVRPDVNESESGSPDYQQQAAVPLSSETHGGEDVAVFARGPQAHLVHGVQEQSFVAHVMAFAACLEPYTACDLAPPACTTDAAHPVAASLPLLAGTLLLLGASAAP
Sequence of Voltage-dependent T-type calcium channel subunit alpha-1H (O95180 whole entry): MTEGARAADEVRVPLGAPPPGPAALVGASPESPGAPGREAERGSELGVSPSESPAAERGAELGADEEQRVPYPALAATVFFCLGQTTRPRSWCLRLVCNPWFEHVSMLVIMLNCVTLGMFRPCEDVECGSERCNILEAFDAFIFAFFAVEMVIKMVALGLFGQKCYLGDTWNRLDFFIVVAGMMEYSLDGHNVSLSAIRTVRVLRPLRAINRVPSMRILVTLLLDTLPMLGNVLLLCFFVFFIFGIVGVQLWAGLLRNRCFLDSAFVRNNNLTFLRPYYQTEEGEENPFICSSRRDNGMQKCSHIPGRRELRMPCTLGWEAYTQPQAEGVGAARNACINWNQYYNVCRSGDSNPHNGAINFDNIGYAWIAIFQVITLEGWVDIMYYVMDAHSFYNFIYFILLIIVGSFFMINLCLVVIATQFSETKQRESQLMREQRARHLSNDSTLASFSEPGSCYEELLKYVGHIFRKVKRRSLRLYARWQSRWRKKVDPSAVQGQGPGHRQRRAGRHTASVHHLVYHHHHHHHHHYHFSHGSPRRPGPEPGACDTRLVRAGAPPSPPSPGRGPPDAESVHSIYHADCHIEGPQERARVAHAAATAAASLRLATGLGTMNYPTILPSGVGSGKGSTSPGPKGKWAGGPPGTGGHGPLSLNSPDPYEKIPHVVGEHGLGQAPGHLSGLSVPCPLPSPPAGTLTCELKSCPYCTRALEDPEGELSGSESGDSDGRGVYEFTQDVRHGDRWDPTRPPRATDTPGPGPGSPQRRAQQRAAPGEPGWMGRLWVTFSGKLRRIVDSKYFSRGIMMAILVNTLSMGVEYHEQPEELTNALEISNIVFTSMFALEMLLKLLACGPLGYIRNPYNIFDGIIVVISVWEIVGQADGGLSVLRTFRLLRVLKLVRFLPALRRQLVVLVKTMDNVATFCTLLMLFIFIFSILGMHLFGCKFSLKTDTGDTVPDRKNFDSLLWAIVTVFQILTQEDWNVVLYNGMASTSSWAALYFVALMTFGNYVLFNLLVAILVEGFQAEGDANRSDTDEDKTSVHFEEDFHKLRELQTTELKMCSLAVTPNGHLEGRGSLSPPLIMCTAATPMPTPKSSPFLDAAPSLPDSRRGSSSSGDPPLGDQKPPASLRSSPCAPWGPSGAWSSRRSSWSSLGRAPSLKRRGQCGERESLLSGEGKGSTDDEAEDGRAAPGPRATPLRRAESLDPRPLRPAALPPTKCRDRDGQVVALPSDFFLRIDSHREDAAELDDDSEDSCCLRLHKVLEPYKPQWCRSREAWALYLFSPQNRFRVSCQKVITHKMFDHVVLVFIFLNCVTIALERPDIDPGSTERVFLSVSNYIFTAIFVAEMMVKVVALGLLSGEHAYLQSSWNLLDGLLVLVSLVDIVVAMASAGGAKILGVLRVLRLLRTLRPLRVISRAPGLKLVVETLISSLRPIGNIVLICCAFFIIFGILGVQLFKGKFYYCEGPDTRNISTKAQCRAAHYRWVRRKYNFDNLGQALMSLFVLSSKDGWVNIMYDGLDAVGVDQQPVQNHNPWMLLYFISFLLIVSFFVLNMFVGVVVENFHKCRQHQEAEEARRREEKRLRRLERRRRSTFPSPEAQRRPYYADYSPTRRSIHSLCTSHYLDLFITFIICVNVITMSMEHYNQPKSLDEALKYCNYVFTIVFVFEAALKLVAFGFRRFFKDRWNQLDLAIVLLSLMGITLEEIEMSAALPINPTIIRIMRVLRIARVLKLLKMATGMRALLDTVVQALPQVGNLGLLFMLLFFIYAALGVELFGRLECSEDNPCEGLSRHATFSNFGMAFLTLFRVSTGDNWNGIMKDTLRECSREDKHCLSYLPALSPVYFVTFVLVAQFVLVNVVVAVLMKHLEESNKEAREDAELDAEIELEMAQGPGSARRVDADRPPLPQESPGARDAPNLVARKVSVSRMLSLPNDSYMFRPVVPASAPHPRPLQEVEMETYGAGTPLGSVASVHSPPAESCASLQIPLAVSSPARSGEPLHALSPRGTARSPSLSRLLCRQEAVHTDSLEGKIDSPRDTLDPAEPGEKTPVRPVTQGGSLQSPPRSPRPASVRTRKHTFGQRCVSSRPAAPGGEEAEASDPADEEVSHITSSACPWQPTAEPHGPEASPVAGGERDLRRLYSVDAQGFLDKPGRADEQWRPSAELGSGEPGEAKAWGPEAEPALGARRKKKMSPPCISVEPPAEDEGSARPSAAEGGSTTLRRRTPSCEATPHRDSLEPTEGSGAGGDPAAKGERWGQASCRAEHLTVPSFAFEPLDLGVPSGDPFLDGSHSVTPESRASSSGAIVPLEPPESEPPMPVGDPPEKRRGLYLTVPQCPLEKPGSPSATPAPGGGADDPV

For `CC(C)CCNC(=O)C1CCN(C(=O)N(C)C)CC1`, the IC50 (commonly the concentration that gives 50% inhibition) in assay [1] was > 100 µM (inactive). Besides, in assay [2], the EC50 (usually the concentration that produces a half-maximal response) was > 100 µM (inactive).

Take `CCC(C(=O)O)N1C(=O)/C(=C/c2cccn2C)SC1=S` (stereo not drawn): on Troponin, cardiac muscle, the EC50 was 14.4 µM (inactive). Besides, the IC50 was > 23.2 µM (inactive) in assay [3] and 12.5 µM (inactive) in assay [4].

With `CC(C)S(=O)(=O)c1csc(NC(=O)Nc2ccc(Cl)cc2)c1`, the EC50 on Ion channel NompC was > 29.9 µM (inactive); at Mucolipin-3 it was > 29.9 µM (not active).

As to `CCOc1cc(/C=C(\C#N)c2nc(-c3cccs3)c(NC(C)=O)s2)ccc1O`, the EC50 in assay [5] is 0.628 µM (active); in the assay with Streptococcus, 2.02 µM (active); at Ion channel NompC, 13.4 µM (inactive); on Mucolipin-3 it was > 29.9 µM (not active).

Take `O=C(CN1C(=O)/C(=C/c2ccco2)SC1=S)Nc1ccc(C(=O)O)c(O)c1`: the IC50 was 45.8 µM (active) on Prothrombin; > 122 µM (inactive) in assay [7]; 6.89 µM (active) on Cysteine protease ATG4B; > 100 µM (inactive) in assay [8]; 19.4 µM (active) in assay [9]; 76.9 µM (active) at Large T antigen. Also, the IC50 in [10] is 2.32 µM (active); at Phospholipase A2 it was 16.8 µM (active); in assay [11], 9.42 µM (active); in assay [12], > 122 µM (inactive). Moreover, in [6], the EC50 was > 100 µM (inactive). The AC50 (commonly the concentration giving half of the maximal activity seen) on ORF 73 is 76.1 µM (active).

Consider `O=C(N[C@H]1CCCN(Cc2ccccc2)C1)c1ccc(Cl)cc1Cl`, for which the EC50 in [13] is 10 µM (active).

Turning to `CC(C)(C)CCN1CCC[C@H](NC(=O)c2cc(Cl)cc(Cl)c2)C1`, the EC50 in assay [13] was 10 µM (active).

With `COc1ccc(/N=C2\SC(C(N)=O)CC(=O)N2CCc2ccc(OC)c(OC)c2)cc1` (stereo not drawn), the 50% effective concentration (EC50) in assay [14] is 48.9 µM (active); in assay [15] it was 13.3 µM (active); in assay [6] it was 59.6 µM (active).
